Assay results as given in patent publication US11136296B2, “Substituted N-arylethyl-2-arylquinoline-4-carboxamides and use thereof” (Bayer Aktiengesellschaft, priority 2017, dated 2021).

These compounds were tested against FP receptor (Homo sapiens (Human), UniProt P43088) (assay: In vitro test of inhibition of human FP receptor activity (PGF2α-induced calcium flux in FP-expressing CHEM1 cells)). Conditions: PGF2α-induced (2 nM) calcium flux in FP-expressing CHEM1 cells; some as mean values from multiple determinations.
FP receptor, sequence (P43088 whole entry): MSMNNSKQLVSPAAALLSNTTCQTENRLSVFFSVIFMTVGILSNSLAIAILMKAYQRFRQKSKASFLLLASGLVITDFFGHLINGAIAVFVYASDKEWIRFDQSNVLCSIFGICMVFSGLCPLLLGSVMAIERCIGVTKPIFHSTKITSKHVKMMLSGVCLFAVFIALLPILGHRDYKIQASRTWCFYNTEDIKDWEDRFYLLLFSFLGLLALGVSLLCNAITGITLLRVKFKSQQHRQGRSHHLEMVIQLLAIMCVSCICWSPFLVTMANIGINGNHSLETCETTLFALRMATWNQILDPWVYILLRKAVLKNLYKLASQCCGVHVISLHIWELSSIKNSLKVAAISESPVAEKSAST
Assay type: cell-based
Source text: Table 1 below lists the IC50 values from this assay for individual working examples of the invention (some as mean values from multiple independent individual determinations): […]

Point of comparison: `Cc1c(-c2ccccc2)nc2ccc(Br)cc2c1C(=O)NCC(C)(CC(=O)O)c1ccccn1` (single isomer, unassigned; (+)) [Example 118, (+)-4-{[(6-Bromo-3-methyl-2-phenylquinolin-4-yl)carbonyl]amino}-3-methyl-3-(pyridin-2-yl)butanoic Acid], IC50 280 nM. Against it:
- Cc1c(-c2ccccc2)nc2ccc(Br)cc2c1C(=O)NCC(C)(C(=O)O)c1c(F)cccc1Cl (single isomer, unassigned; (+)) [Example 61, (+)-3-{[(6-Bromo-3-methyl-2-phenylquinolin-4-yl)carbonyl]amino}-2-(2-chloro-6-fluorophenyl)-2-methylpropanoic Acid] — within 1.5-fold, 230 nM
- Cc1c(-c2ccccc2)nc2ccc(Br)cc2c1C(=O)NCC(CC(=O)O)c1ccccc1 (single isomer, unassigned; (+)) [Example 65, (+)-4-{[(6-Bromo-3-methyl-2-phenylquinolin-4-yl)carbonyl]amino}-3-phenylbutanoic Acid] — within 1.5-fold, 220 nM
- Cc1c(-c2ccccc2)nc2ccc(Br)cc2c1C(=O)NCC(CC(=O)O)c1ccc(Cl)cc1 (single isomer, unassigned; (+)) [Example 67, (+)-4-{[(6-Bromo-3-methyl-2-phenylquinolin-4-yl)carbonyl]amino}-3-(4-chlorophenyl)butanoic Acid] — within 1.5-fold, 370 nM
- Cc1ccccc1C(CNC(=O)c1c(C)c(-c2ccccc2)nc2ccc(Br)cc12)CC(=O)O (single isomer, unassigned; (+)) [Example 77, (+)-4-{[(6-Bromo-3-methyl-2-phenylquinolin-4-yl)carbonyl]amino}-3-(2-methylphenyl)butanoic Acid] — 3.3-fold lower, 85 nM
- Cc1c(-c2ccccc2)nc2ccc(Br)cc2c1C(=O)NCC(C)(CC(=O)O)c1ncccc1Cl (single isomer, unassigned; (+)) [Example 86, (+)-4-{[(6-Bromo-3-methyl-2-phenylquinolin-4-yl)carbonyl]amino}-3-(3-chloropyridin-2-yl)-3-methylbutanoic Acid] — within 1.5-fold, 240 nM
- Cc1c(-c2ccccc2)nc2ccc(Br)cc2c1C(=O)NCC(CC(=O)O)c1c(F)cccc1Cl (single isomer, unassigned; (+)) [Example 89, (+)-4-{[(6-Bromo-3-methyl-2-phenylquinolin-4-yl)carbonyl]amino}-3-(2-chloro-6-fluorophenyl)butanoic Acid] — 10-fold lower, 27 nM
- Cc1ccc(C(CNC(=O)c2c(C)c(-c3ccccc3)nc3ccc(Br)cc23)CC(=O)O)cc1 (single isomer, unassigned; (+)) [Example 91, (+)-4-{[(6-Bromo-3-methyl-2-phenylquinolin-4-yl)carbonyl]amino}-3-(4-methylphenyl)butanoic Acid] — 1.6-fold higher, 460 nM
- Cc1c(-c2ccccc2)nc2ccc(Br)cc2c1C(=O)NCC(CC(=O)O)c1ccccc1OC(F)(F)F (single isomer, unassigned; (+)) [Example 101, (+)-4-{[(6-Bromo-3-methyl-2-phenylquinolin-4-yl)carbonyl]amino}-3-[2-(trifluoromethoxy)phenyl]butanoic Acid] — 8.8-fold lower, 32 nM
- Cc1c(-c2ccccc2)nc2ccc(Br)cc2c1C(=O)NCC(CC(=O)O)c1ccccn1 (single isomer, unassigned; (+)) [Example 104, (+)-4-{[(6-Bromo-3-methyl-2-phenylquinolin-4-yl)carbonyl]amino}-3-(pyridin-2-yl)butanoic Acid] — higher, > 1000 nM
- Cc1c(-c2ccccc2)nc2ccc(Br)cc2c1C(=O)NCC(CC(=O)O)c1ccccc1C(F)(F)F (single isomer, unassigned; (+)) [Example 106, (+)-4-{[(6-Bromo-3-methyl-2-phenylquinolin-4-yl)carbonyl]amino}-3-[2-(trifluoromethyl)phenyl]butanoic Acid] — the same, 280 nM
- COc1cccnc1C(CNC(=O)c1c(C)c(-c2ccccc2)nc2ccc(Br)cc12)CC(=O)O (single isomer, unassigned; (+)) [Example 110, (+)-4-{[(6-Bromo-3-methyl-2-phenylquinolin-4-yl)carbonyl]amino}-3-(3-methoxypyridin-2-yl)butanoic Acid] — 3.7-fold lower, 75 nM
- Cc1c(-c2ccccc2)nc2ccc(Br)cc2c1C(=O)NCC(C)(CC(=O)O)c1ccccc1F (single isomer, unassigned; (+)) [Example 115, (+)-4-{[(6-Bromo-3-methyl-2-phenylquinolin-4-yl)carbonyl]amino}-3-(2-fluorophenyl)-3-methylbutanoic Acid] — 9-fold lower, 31 nM
- COc1ccccc1C(C)(CNC(=O)c1c(C)c(-c2ccccc2)nc2ccc(Br)cc12)CC(=O)O (single isomer, unassigned; (+)) [Example 121, (+)-4-{[(6-Bromo-3-methyl-2-phenylquinolin-4-yl)carbonyl]amino}-3-(2-methoxyphenyl)-3-methylbutanoic Acid] — 28-fold lower, 10 nM
- COc1ccc(F)cc1C(CNC(=O)c1c(C)c(-c2ccccc2)nc2ccc(Br)cc12)CC(=O)O (single isomer, unassigned; (+)) [Example 124, (+)-4-{[(6-Bromo-3-methyl-2-phenylquinolin-4-yl)carbonyl]amino}-3-(5-fluoro-2-methoxyphenyl)butanoic Acid] — 53-fold lower, 5.3 nM
- COc1cccc(F)c1C(CNC(=O)c1c(C)c(-c2ccccc2)nc2ccc(Br)cc12)CC(=O)O (single isomer, unassigned; (+)) [Example 127, (+)-4-{[(6-Bromo-3-methyl-2-phenylquinolin-4-yl)carbonyl]amino}-3-(2-fluoro-6-methoxyphenyl)butanoic Acid] — 11-fold lower, 25 nM
- CCOc1ccccc1C(CNC(=O)c1c(C)c(-c2ccccc2)nc2ccc(Br)cc12)CC(=O)O (single isomer, unassigned; (+)) [Example 131, (+)-4-{[(6-Bromo-3-methyl-2-phenylquinolin-4-yl)carbonyl]amino}-3-(2-ethoxyphenyl)butanoic Acid] — 2.8-fold lower, 99 nM
- COc1ccc(F)cc1C(C)(CNC(=O)c1c(C)c(-c2ccccc2)nc2ccc(Br)cc12)CC(=O)O (single isomer, unassigned; (+)) [Example 133, (+)-4-{[(6-Bromo-3-methyl-2-phenylquinolin-4-yl)carbonyl]amino}-3-(5-fluoro-2-methoxyphenyl)-3-methylbutanoic Acid] — 6-fold lower, 47 nM
- COc1c(F)cc(F)cc1C(C)(CNC(=O)c1c(C)c(-c2ccccc2)nc2ccc(Br)cc12)CC(=O)O (single isomer, unassigned; (+)) [Example 136, (+)-4-{[(6-Bromo-3-methyl-2-phenylquinolin-4-yl)carbonyl]amino}-3-(3,5-difluoro-2-methoxyphenyl)-3-methylbutanoic Acid] — 22-fold lower, 13 nM
- COc1cc(F)ccc1C(C)(CNC(=O)c1c(C)c(-c2ccccc2)nc2ccc(Br)cc12)CC(=O)O (single isomer, unassigned; (+)) [Example 139, (+)-4-{[(6-Bromo-3-methyl-2-phenylquinolin-4-yl)carbonyl]amino}-3-(4-fluoro-2-methoxyphenyl)-3-methylbutanoic Acid] — 10-fold lower, 28 nM
- COc1cccc(F)c1C(C)(CNC(=O)c1c(C)c(-c2ccccc2)nc2ccc(Br)cc12)CC(=O)O (single isomer, unassigned; (+)) [Example 143, (+)-4-{[(6-Bromo-3-methyl-2-phenylquinolin-4-yl)carbonyl]amino}-3-(2-fluoro-6-methoxyphenyl)-3-methylbutanoic Acid] — 41-fold lower, 6.8 nM
- Cc1c(-c2ccccc2)nc2ccc(Br)cc2c1C(=O)NC(C)C(CC(=O)O)c1ccccc1Cl (single isomer, unassigned; (+)) [Example 147, (+)-4-{[(6-Bromo-3-methyl-2-phenylquinolin-4-yl)carbonyl]amino}-3-(2-chlorophenyl)pentanoic Acid] — higher, > 1000 nM
- Cc1c(-c2ccccc2)nc2ccc(Br)cc2c1C(=O)NC(C)C(CC(=O)O)c1ccccc1Cl (single isomer, unassigned; (+)) [Example 150, (+)-4-{[(6-Bromo-3-methyl-2-phenylquinolin-4-yl)carbonyl]amino}-3-(2-chlorophenyl)pentanoic Acid] — 3.4-fold higher, 960 nM
- Cc1c(-c2ccccc2)nc2ccc(Br)cc2c1C(=O)NCC(C)(CCC(=O)O)c1ccccc1Cl (single isomer, unassigned; (+)) [Example 156, (+)-5-{[(6-Bromo-3-methyl-2-phenylquinolin-4-yl)carbonyl]amino}-4-(2-chlorophenyl)-4-methylpentanoic Acid] — 35-fold lower, 8 nM
- Cc1c(-c2ccccc2)nc2ccc(Br)cc2c1C(=O)NCC(CCC(=O)O)c1c(F)cccc1Cl (single isomer, unassigned; (+)) [Example 159, (+)-5-{[(6-Bromo-3-methyl-2-phenylquinolin-4-yl)carbonyl]amino}-4-(2-chloro-6-fluorophenyl)pentanoic Acid] — 12-fold lower, 24 nM
- Cc1ccccc1C(CCC(=O)O)CNC(=O)c1c(C)c(-c2ccccc2)nc2ccc(Br)cc12 (single isomer, unassigned; (+)) [Example 162, (+)-5-{[(6-Bromo-3-methyl-2-phenylquinolin-4-yl)carbonyl]amino}-4-(2-methylphenyl)pentanoic Acid] — 8.5-fold lower, 33 nM
- Cc1c(-c2ccccc2)nc2ccc(Br)cc2c1C(=O)NCC(CCC(=O)O)c1cc(F)ccc1Cl (single isomer, unassigned; (+)) [Example 165, (+)-5-{[(6-Bromo-3-methyl-2-phenylquinolin-4-yl)carbonyl]amino}-4-(2-chloro-5-fluorophenyl)pentanoic Acid] — 42-fold lower, 6.6 nM
- COc1ccccc1C(CCC(=O)O)CNC(=O)c1c(C)c(-c2ccccc2)nc2ccc(Br)cc12 (single isomer, unassigned; (+)) [Example 168, (+)-5-{[(6-Bromo-3-methyl-2-phenylquinolin-4-yl)carbonyl]amino}-4-(2-methoxyphenyl)pentanoic Acid] — 78-fold lower, 3.6 nM
- Cc1c(-c2ccccc2)nc2ccc(Br)cc2c1C(=O)NCC(C)(CCC(=O)O)c1cc(F)ccc1Cl (single isomer, unassigned; (+)) [Example 171, (+)-5-{[(6-Bromo-3-methyl-2-phenylquinolin-4-yl)carbonyl]amino}-4-(2-chloro-5-fluorophenyl)-4-methylpentanoic Acid] — 25-fold lower, 11 nM
